Test results taken from patent US20230095520A1, “PHARMACEUTICAL COMPOSITION FOR PREVENTING OR TREATING CANCER COMPRISING AZOLE DERIVATIVES OR PHARMACEUTICALLY ACCEPTABLE SALT THEREOF” (Yungjin Pharm. Co., Ltd., priority 2020, published 2023).

What was measured:
[1] = target: T1, Recombinant purified human CDK7 (Homo sapiens, UniProt P50613); test: CDK7 activity inhibition, ADP-Glo kinase assay; format: biochemical; conditions: ATP 90 μM, MBP substrate, 2 hours 30° C.
T1 construct: purchased ThermoFisher PV3868
In short: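 Human recombinant CDK7 (50 ng per reaction) in 40 mM Tris-Cl pH 7.5, 20 mM MgCl2, 0.1 mg/ml BSA, 50 μM DTT, with 1% DMSO. The reaction used 90 μM ATP and 0.2 μg/μl MBP substrate for 2 h at 30 °C. ADP formed was quantified by ADP-Glo luminescence to derive inhibition.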

MV-4-11 cells = test: MV-4-11 cell proliferation inhibition (CCK-8); format: cell-based; conditions: Homo sapiens, MV4-11, MV-4-11 proliferation, 72 hours
In short: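 The FLT3-mutant AML line MV-4-11 was exposed to compound for 72 h. Antiproliferative effect was read with the tetrazolium-based CCK-8 method.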

A549 = test: Cancer cell proliferation GI50 (CCK-8); format: cell-based; conditions: Homo sapiens, A549, lung cancer, 72 hours
Experimental: (§1) In this example, in order to confirm the proliferation inhibitory effect on various cancer cells, Compound 121 was tested as follows.
(§2) The cells were cultured with a culture medium shown in Table 9 below at 37° C. in a humidified condition in the presence of 5% CO2. Each cell cultured in a 96-well cell culture plate was treated with the compound of the present invention and cultured for 72 hours.

BDCM = test: Cancer cell proliferation GI50 (CCK-8); format: cell-based; conditions: acute myeloid leukemia, 72 hours
Experimental: as §1, §2

BxPC-3 = test: Cancer cell proliferation GI50 (CCK-8); format: cell-based; conditions: Homo sapiens, BxPC-3, pancreatic cancer, 72 hours
Experimental: as §1, §2

DU145 = test: Cancer cell proliferation GI50 (CCK-8); format: cell-based; conditions: Homo sapiens, DU-145, DU145, prostate cancer, 72 hours
Experimental: as §1, §2

HCT116 = test: Cancer cell proliferation GI50 (CCK-8); format: cell-based; conditions: Homo sapiens, HCT-116, HCT116, large intestine cancer, 72 hours
Experimental: as §1, §2

JURKAT = test: Cancer cell proliferation GI50 (CCK-8); format: cell-based; conditions: Homo sapiens, T cell acute lymphocytic leukemia, 72 hours
Experimental: as §1, §2

KASUMI-2 = test: Cancer cell proliferation GI50 (CCK-8); format: cell-based; conditions: KASUMI-2, B cell acute lymphocytic leukemia, 72 hours
Experimental: as §1, §2

KG-1 = test: Cancer cell proliferation GI50 (CCK-8); format: cell-based; conditions: Homo sapiens, KG-1, acute myeloid leukemia, 72 hours
Experimental: as §1, §2

MCF-7 = test: Cancer cell proliferation GI50 (CCK-8); format: cell-based; conditions: Homo sapiens, MCF7, MCF-7, breast cancer, 72 hours
Experimental: as §1, §2

MOLM-13 = test: Cancer cell proliferation GI50 (CCK-8); format: cell-based; conditions: Homo sapiens, MOLM-13, acute myeloid leukemia (AML), 72 hours
Experimental: as §1, §2

MOLM/DEC-5 = test: Cancer cell proliferation GI50 (CCK-8); format: cell-based; conditions: MOLM/DEC-5, acute myeloid leukemia, 72 hours
Experimental: as §1, §2

MOLT4 = test: Cancer cell proliferation GI50 (CCK-8); format: cell-based; conditions: Homo sapiens, MOLT-4, MOLT4, acute lymphocytic leukemia, 72 hours
Experimental: as §1, §2

MV-4-11 = test: Cancer cell proliferation GI50 (CCK-8); format: cell-based; conditions: Homo sapiens, MV4-11, MV-4-11, acute myeloid leukemia, 72 hours
Experimental: as §1, §2

OVCAR-3 = test: Cancer cell proliferation GI50 (CCK-8); format: cell-based; conditions: Homo sapiens, OVCAR-3, ovarian cancer, 72 hours
Experimental: as §1, §2

MOLM-13-GFP human cells = test: MOLM-13 orthotopic transplantation animal model; format: in vivo; conditions: NSG mouse, tail vein, 1 or 2 mg/kg (2D on/5D off) or 2 mg/kg BIW, 3 to 4 weeks, versus control group
Experimental: MOLM-13 cells showing cancer cell inhibitory effect were selected, and Compound 121 was tested as follows using an orthotopic transplantation model.
The animal model used for efficacy evaluation is an NSG (Jackson lab, #005557, USA) mouse lacking the IL-2 receptor gamma gene, in which the immune activity of T cells, B cells, and NK cells is suppressed, and the efficacy was evaluated in an orthotopic transplantation model of MOLM-13-GFP human cells. For the induction method, an orthotopic transplantation model was induced by injecting the cells in an amount of 5×10^5 cells/200 ul/mouse into the tail vein route. Four test groups were G1 excipient control group vehicle (saline), G2 No. 121 1 mg/kg (2D on/5D off), G3 No. 121 2 mg/kg (2D on/ 5D off), and G4 No. 121 2 mg/kg (BIW), and 5 animals per group were set. From the day after cell injection, the tail vein administration of Compound 121 was started at each dose and regimen for 3 to 4 weeks.

T1 sequence (P50613 whole entry): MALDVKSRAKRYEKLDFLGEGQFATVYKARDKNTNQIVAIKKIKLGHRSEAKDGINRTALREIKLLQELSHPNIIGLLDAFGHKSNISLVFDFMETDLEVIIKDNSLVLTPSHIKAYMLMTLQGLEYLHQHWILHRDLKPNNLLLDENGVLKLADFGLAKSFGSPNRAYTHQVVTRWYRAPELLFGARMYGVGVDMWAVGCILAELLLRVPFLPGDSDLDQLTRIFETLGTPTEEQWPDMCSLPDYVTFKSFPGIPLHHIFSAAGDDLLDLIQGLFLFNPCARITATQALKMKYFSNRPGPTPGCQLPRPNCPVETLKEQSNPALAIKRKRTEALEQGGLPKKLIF
T1 sequence (P51946 whole entry partner): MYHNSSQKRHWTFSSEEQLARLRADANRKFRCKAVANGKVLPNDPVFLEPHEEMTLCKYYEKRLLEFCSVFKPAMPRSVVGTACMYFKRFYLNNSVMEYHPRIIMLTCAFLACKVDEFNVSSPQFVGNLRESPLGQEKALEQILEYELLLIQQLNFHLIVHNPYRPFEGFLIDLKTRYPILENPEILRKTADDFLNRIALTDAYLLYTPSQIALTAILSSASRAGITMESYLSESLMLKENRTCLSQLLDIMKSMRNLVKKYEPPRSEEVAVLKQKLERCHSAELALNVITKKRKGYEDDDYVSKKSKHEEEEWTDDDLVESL
T1 sequence (P51948 whole entry partner): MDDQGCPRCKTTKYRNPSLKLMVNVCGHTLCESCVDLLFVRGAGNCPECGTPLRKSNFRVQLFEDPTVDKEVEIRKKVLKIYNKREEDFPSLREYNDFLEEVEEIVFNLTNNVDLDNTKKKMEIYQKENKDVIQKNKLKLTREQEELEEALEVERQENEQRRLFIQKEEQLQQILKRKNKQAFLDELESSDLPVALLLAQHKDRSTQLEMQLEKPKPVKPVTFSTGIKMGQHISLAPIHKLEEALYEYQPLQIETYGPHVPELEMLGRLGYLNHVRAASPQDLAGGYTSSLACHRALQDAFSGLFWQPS

## CCc1cnc(NC(=O)[C@@H](C)c2cccc(-c3cnc(NC(=O)/C=C/CN(C)C)c(C#N)c3)c2)s1 [Compound 121, (S,E)-N-(3-cyano-5-(3-(1-((5-ethylthiazol-2-yl)amino)-1-oxopropan-2-yl)phenyl)pyridin-2-yl)-4-(dimethylamino)but-2-enamide]
[1]
  IC50: 4.2 nM
MV-4-11 cells
  IC50: 4.3 nM
A549
  GI50: 8.6 nM
BDCM
  GI50: 2.68 nM
BxPC-3
  GI50: 6.7 nM
DU145
  GI50: 11.5 nM
HCT116
  GI50: 4 nM
JURKAT
  GI50: 17.5 nM
KASUMI-2
  GI50: 6.26 nM
KG-1
  GI50: 29 nM
MCF-7
  GI50: 15.1 nM
MOLM-13
  GI50: 19 nM
MOLM/DEC-5
  GI50: 14.9 nM
MOLT4
  GI50: 4.51 nM
MV-4-11
  GI50: 11.8 nM
OVCAR-3
  GI50: 4.8 nM
MOLM-13-GFP human cells; FIG. 11
  survival rate: increase in the survival rate
MOLM-13-GFP human cells; FIG. 12
  change in body weight: constant amount of body weight gain
